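In this assay, cells in 96-well plates receive the compound at five concentrations for 48 hours. Endpoints are linearly interpolated between the surrounding concentrations. At the GI50, growth is halved. TGI: total growth inhibition.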
Tests used:
Assay in all cases: NCI-60 cell line screen, 48 h
786-0 renal = system: 786-0 renal
CAKI-1 renal = system: CAKI-1 renal
MALME-3M melanoma = system: MALME-3M melanoma
NCI-H226 lung = system: NCI-H226 lung
OVCAR-3 ovarian = system: OVCAR-3 ovarian
SF-268 CNS = system: SF-268 CNS
SF-539 CNS = system: SF-539 CNS
SK-OV-3 ovarian = system: SK-OV-3 ovarian
TK-10 renal = system: TK-10 renal
HCT-15 colon = system: HCT-15 colon

Compound | TGI (786-0 renal) [µM] | TGI (CAKI-1 renal) [µM] | TGI (MALME-3M melanoma) [µM] | TGI (NCI-H226 lung) [µM] | TGI (OVCAR-3 ovarian) [µM] | TGI (SF-268 CNS) [µM] | TGI (SF-539 CNS) [µM] | TGI (SK-OV-3 ovarian) [µM] | TGI (TK-10 renal) [µM] | TGI (HCT-15 colon) [µM] | GI50 (786-0 renal) [µM] | GI50 (CAKI-1 renal) [µM] | GI50 (HCT-15 colon) [µM] | GI50 (MALME-3M melanoma) [µM] | GI50 (NCI-H226 lung) [µM] | GI50 (OVCAR-3 ovarian) [µM] | GI50 (SF-268 CNS) [µM] | GI50 (SF-539 CNS) [µM] | GI50 (SK-OV-3 ovarian) [µM] | GI50 (TK-10 renal) [µM]
CN(C(=O)C12C3C4C1C1C2C3C41C(N)=O)C(C)(C)C (configuration not stated) | > 100 | > 100 | > 100 | > 100 | > 100 | > 100 | > 100 | > 100 | > 100 | – | – | – | – | – | – | – | – | – | – | –
COc1ccc2c(c1)C(=O)c1ccc(OC)cc1C2=S | > 100 | – | > 100 | > 100 | > 100 | > 100 | > 100 | > 100 | > 100 | > 100 | – | – | – | – | – | – | – | – | – | –
COc1cc(OC)c2nc(C)c3c(c2c1)SCC3 | 35.4 | 70.9 | 63.8 | 43.8 | 36.4 | 44.6 | 35.8 | 48.9 | 38.5 | > 100 | – | – | – | – | – | – | – | – | – | –
COc1cc(C(=O)c2c(-c3ccccc3)oc3c(OC)cccc23)cc(OC)c1OC | 3.1 | 21.9 | > 100 | – | 0.363 | > 100 | 0.173 | > 100 | > 62.2 | > 100 | 0.073 | 0.0474 | 0.0444 | 1.32 | 0.236 | 0.0346 | 0.128 | 0.0293 | 1.57 | 10
O=C1NNC2(C(=O)N1)c1ccccc1-c1ccccc12 | > 10 | > 10 | > 10 | > 10 | – | > 10 | > 10 | > 10 | > 10 | > 10 | – | – | – | – | – | – | – | – | – | –
COc1cccc(-c2c[nH]c3c(N/N=C/c4ccncc4)ncnc23)c1 | 18.6 | > 25 | 20.9 | > 16 | 6.26 | 13.3 | 6.81 | 3.91 | 20.6 | > 25 | 1.26 | 1.84 | 1.46 | 8.58 | 1.75 | 1.12 | 3.44 | 1.56 | 0.903 | 4.15
Cn1ncnc1[C@H]1c2n[nH]c(=O)c3cc(F)cc(c23)N[C@@H]1c1ccc(F)cc1 | > 100 | > 100 | > 100 | > 100 | > 100 | > 100 | > 100 | > 100 | > 100 | > 100 | > 100 | 5.89 | > 100 | > 100 | > 100 | > 100 | 3.07 | – | > 100 | > 100
O=C1CCCCC1S(=O)(=O)c1ccccc1 (configuration not stated) | > 100 | > 100 | > 100 | > 100 | > 100 | > 100 | > 100 | > 100 | > 100 | > 100 | – | – | – | – | – | – | – | – | – | –
O=C1Nc2ccc(Br)cc2C1=Nc1cccnc1 | 44.7 | > 100 | 46.8 | > 100 | 44.3 | 71.8 | 30 | > 100 | > 100 | 59.6 | – | – | – | – | – | – | – | – | – | –
CCOC(C[C@H](O[Si](C)(C)C(C)(C)C)[C@H]1COC(=S)S1)OCC | > 100 | – | > 100 | > 100 | > 100 | > 100 | > 100 | – | > 100 | > 100 | – | – | – | – | – | – | – | – | – | –
COc1ccc2c(CN3CCCC[C@H]3C(=O)O)cc3cc4c(cc3c2c1)OCO4 | > 100 | 3.37 | – | 3.13 | 3.41 | 1.39 | 16.2 | 23.1 | 60.2 | 12.7 | 6.71 | 0.747 | 1.4 | – | 1.42 | 0.688 | 0.175 | 4.54 | 3.25 | 5.47
CCCCOC(=O)N1CCN(/[N+]([O-])=N/Oc2ccc([N+](=O)[O-])cc2[N+](=O)[O-])CC1 | 5.67 | 6.77 | – | 5.95 | 4.12 | 25.4 | 6.11 | – | 21.8 | 21.4 | 2.47 | 3.16 | 3.99 | – | 2.54 | 1.68 | 6.42 | 2.56 | – | 10
Cc1cc(NC(=O)NC(=O)c2ccccc2NC(=O)C(C)N)ccc1Oc1ncc(Br)cn1 (configuration not stated) | 9.56 | – | 33.4 | 2.88 | 0.111 | 56.3 | 0.0431 | 15.9 | 39.4 | 39.1 | – | – | – | – | – | – | – | – | – | –
C=C1CC2OC(=O)C(=C)C2C(O)C2C(=C)CCC12 (configuration not stated) | 26.7 | 19.7 | 45.1 | 35.5 | 22.3 | 32.3 | 11.5 | 24.9 | 28 | – | – | – | – | – | – | – | – | – | – | –
Cc1ccc2c(c1)-c1c3c(nn1-c1ccccc1)-c1ccccc1SC3O2 (configuration not stated) | > 100 | – | > 100 | – | > 100 | > 100 | > 100 | > 100 | > 100 | – | – | – | – | – | – | – | – | – | – | –
Cc1cc([N+](=O)[O-])c(NS(=O)(=O)c2cccc(C(=O)O)c2)cc1-c1cccnc1 | > 100 | – | > 100 | > 100 | > 100 | > 100 | > 100 | > 100 | > 100 | > 100 | > 100 | – | > 100 | > 100 | > 100 | > 100 | > 100 | > 100 | > 100 | > 100
CC1(C)CC(O)C(C)(C)[C@@H](O)C1 (some centres not stated) | > 100 | > 100 | > 100 | > 100 | – | > 100 | > 100 | > 100 | > 100 | > 100 | – | – | – | – | – | – | – | – | – | –
Cc1ccccc1OCC(O)CN1CCN(c2ccc(Cl)cc2)CC1 (configuration not stated) | 32.6 | 26.6 | 31.2 | 35.9 | 31.7 | 34.3 | 36.5 | 53.8 | – | 40.2 | 17.4 | 12.5 | 19.2 | 15.2 | 18.6 | 16.6 | 17.4 | 19.5 | 21.2 | –
